Assay results from PMC11270681, “Synthesis and Systematic Investigation of Lepidiline A and Its Gold(I), Silver(I), and Copper(I) Complexes Using In Vitro Cancer Models and Multipotent Stem Cells” (ACS Omega, 2024).
Where “and” joins values, the source holds several entries; their conditions need not be identical. Equal values may be shown once.

Tests used:
IGROV-1 = assay: Cytotoxicity (PrestoBlue), ovarian cancer line; type: cell-based; details: IGROV-1, 72 h incubation
Experimental: (§1) OVCAR-3 (OVC-3) and OVCAR-8 (OVC-8) ovarian serous adenocarcinomas, IGROV-1 ovarian endometrioid adenocarcinoma, OVCAR-5 (OVC-5) upper gastrointestinal carcinoma, MDA-MB-231 breast adenocarcinoma, and MCF-7 and T-47D invasive breast carcinomas were purchased from the Developmental Therapeutic Program of the National Cancer Institute (NIH, USA) and were cultured in an RPMI medium (Thermo Fisher). Mes-Sa and Mes-Sa/Dx5 uterine sarcoma cell lines were purchased from American Type Culture Collection (ATCC) and were kept in DMEM (Thermo Fisher). Mes-Sa B1 was transfected with the human MDR1 gene, and Mes-Sa mCherry, Mes-Sa B1 mOrange, and Mes-Sa/Dx5 eGFP were engineered to stably express the respective fluorescent proteins previously.[51] Culture media for cancer cells were supplemented with 10% fetal bovine serum, 2 mM L-glutamine, and 100 units/mL penicillin and 100 μg/mL streptomycin (Thermo Fisher). The adipose tissue and bone marrow-derived mesenchymal stem cells (AD-MSC and BM-MSC) were described previously[37] and were kept in DMEM-F12 (Gibco) supplemented with 10% fetal bovine serum, L-glutamine (Thermo Fisher), 0.1% gentamicin (Gibco, 50 mg/mL), and 16 ng/mL fibroblast growth factor 2 (Peprotech). Cells were kept at 37 °C under 5% CO2 and were negative for mycoplasma infection.
(§2) Cytotoxicities of the nonfluorescent cancer cells were assessed with a PrestoBlue cell viability reagent (Thermo Fisher). Briefly, 2500 cells/well were seeded on 384-well plates; then, the next-day drugs were added. After 72 h of incubation, PrestoBlue was added in a 10% final concentration, and after an hour of additional incubation, plates were measured with a PerkinElmer EnSpire plate reader at 555 nm/585 nm excitation/emission wavelengths. Stem cells were seeded on 96-well plates at a density of 5000 cells/well, and the following day, drugs were added for 96 h of incubation; then, viability was assessed with 10% PrestoBlue diluted in PBS. Fluorescent cancer cells were admixed before seeding on 384-well plates at an 800 cells/well density each, thus altogether 2400 cells/well. Drugs were added the following day, and the intensity of the fluorescent proteins was measured after 144 h of incubation at the respective fluorescent channels (excitation/emission, eGFP: 485 nm/510 nm; mCherry: 585 nm/610 nm; mOrange: 545 nm/567 nm). pIC50 values were calculated by a custom program written by Judit Sessler in C#. IC50 values and standard deviation were calculated from average pIC50 values from at least 3 independent measurements.

OVC-3 = assay: Cytotoxicity (PrestoBlue), ovarian cancer line; type: cell-based; details: OVC-3, 72 h incubation
Experimental: as §1, §2

OVC-8 = assay: Cytotoxicity (PrestoBlue), ovarian cancer line; type: cell-based; details: OVC-8, 72 h incubation
Experimental: as §1, §2

OVC-5 = assay: Cytotoxicity (PrestoBlue), upper gastrointestinal cancer line; type: cell-based; details: OVC-5, 72 h incubation, PrestoBlue
Experimental: as §1, §2

MCF-7 = assay: Cytotoxicity (PrestoBlue), breast cancer line; type: cell-based; details: MCF-7, 72 h incubation
Experimental: as §1, §2

MDA-MB-231 = assay: Cytotoxicity (PrestoBlue), breast cancer line; type: cell-based; details: MDA-MB-231, 72 h incubation
Experimental: as §1, §2

T-47D = assay: Cytotoxicity (PrestoBlue), breast cancer line; type: cell-based; details: 72 h incubation
Experimental: as §1, §2

Mes-Sa [1] = assay: Cytotoxicity, uterine sarcoma parental line; type: cell-based; details: fluorescent protein intensity after 144 h
Experimental: as §1, §2

Mes-Sa B1 = assay: Cytotoxicity, MDR1-transfected uterine sarcoma line; type: cell-based; details: Mes-Sa B1 (MDR1 transfected, ABCB1 expressing), fluorescent protein intensity after 144 h
Experimental: as §1, §2

Mes-Sa/Dx5 = assay: Cytotoxicity, doxorubicin-selected MDR uterine sarcoma line; type: cell-based; details: Mes-Sa/Dx5 (doxorubicin selected, ABCB1 expressing), fluorescent protein intensity after 144 h
Experimental: as §1, §2

AD-MSC = assay: Cytotoxicity (PrestoBlue), adipose-derived mesenchymal stem cells; type: cell-based; details: 96 h incubation
Experimental: as §1, §2

BM-MSC = assay: Cytotoxicity (PrestoBlue), bone marrow-derived mesenchymal stem cells; type: cell-based; details: 96 h incubation
Experimental: as §1, §2

im. BM-MSC = assay: Cytotoxicity (PrestoBlue), immortalized bone marrow MSC; type: cell-based; details: 96 h incubation
Experimental: as §1, §2

[2] = test system: 3 ovarium cancer lines (IGROV-1, OVC-3, and OVC-8); assay: Cytotoxicity, range over 3 ovarium cancer lines; type: cell-based; details: IGROV-1, OVC-3, OVC-8
Experimental: as §1, §2

[3] = test system: 3 breast cancer cell lines (MDA-MB-231, MCF-7 and T-47D); assay: Cytotoxicity, range over 3 breast cancer cell lines; type: cell-based; details: MDA-MB-231, MCF-7, T-47D
Experimental: as §1, §2

MSCs = assay: Cytotoxicity, range over MSCs; type: cell-based; details: AD-MSC, BM-MSC, immortalized BM-MSC
Experimental: as §1
(§3) Cytotoxicities of the nonfluorescent cancer cells were assessed with a PrestoBlue cell viability reagent (Thermo Fisher). Briefly, 2500 cells/well were seeded on 384-well plates; then, the next-day drugs were added. After 72 h of incubation, PrestoBlue was added in a 10% final concentration, and after an hour of additional incubation, plates were measured with a PerkinElmer EnSpire plate reader at 555 nm/585 nm excitation/emission wavelengths. Stem cells were seeded on 96-well plates at a density of 5000 cells/well, and the following day, drugs were added for 96 h of incubation; then, viability was assessed with 10% PrestoBlue diluted in PBS. […] IC50 values and standard deviation were calculated from average pIC50 values from at least 3 independent measurements.

cancer lines = assay: Cytotoxicity, range over cancer lines; type: cell-based; details: all cancer lines tested; read-out: IC50 range over cancer lines
Experimental: as §1, §3

[4] = test system: Bone marrow MSCs (BM-MSC); assay: Cytotoxicity, range over bone marrow MSCs; type: cell-based; details: BM-MSC and immortalized BM-MSC
Experimental: as §1, §2

Mes-Sa [5] = assay: H2DCFDA intracellular ROS production assay; type: cell-based; details: 50 μM, 4 h incubation
Experimental: To assess intracellular ROS production, we used a H2DCFDA cellular ROS assay kit (ab113851, Abcam) according to the manufacturer’s instructions. Briefly, 20,000 cells were seeded on 96-well plates. On the following day, cells were washed, and H2DCFDA solution, prepared by avoiding direct light, was added for 45 min. Next, cells were washed, and 50 μM samples of test compounds were aspirated on the cells in a complete and phenol red-free medium (FluoroBrite, Thermo Fisher). At each hour, fluorescence of 2′,7′-dichlorofluorescein (DCF) was measured at 484 nm/535 nm excitation/emission wavelengths. Values were normalized to 0 h measurements. Values indicate at least 3 independent measurements.

[6] = Stability in serum-free culture medium by HPLC-UV; type: physicochemical; details: for AUC (HPLC-UV), single measurements 1-5 / AUC (HPLC-UV), average: serum-free culture medium
Experimental: Stability of the metal complexes in solution was measured in serum-free culture medium. The compounds were dissolved in DMSO right before the experiment. Solutions of Cu-LA and Ag-LA contained 1% final volume of DMSO, while Au-LA contained 30% DMSO. Samples were taken right after dilution, and after 1 h, 2 h, 4 h, 8 h, 16 h, 32 and 48 h, and measured by HPLC-UV.

| SMILES | IC50 (IGROV-1) [µM] | IC50 (OVC-3) [µM] | IC50 (OVC-8) [µM] | IC50 (OVC-5) [µM] | IC50 (MCF-7) [µM] | IC50 (MDA-MB-231) [µM] | IC50 (T-47D) [µM] | IC50 (Mes-Sa [1]) [µM] | IC50 (Mes-Sa B1) [µM] | IC50 (Mes-Sa/Dx5) [µM] | IC50 (AD-MSC) [µM] | IC50 (BM-MSC) [µM] | IC50 (im. BM-MSC) [µM] | IC50 [2] [µM] | IC50 [3] [µM] | IC50 (MSCs) [µM] | IC50 (cancer lines) [µM] | other results |
| --- | --- | --- | --- | --- | --- | --- | --- | --- | --- | --- | --- | --- | --- | --- | --- | --- | --- | --- |
| CC(=O)OC[C@H]1O[C@@H]([S-])[C@H](OC(C)=O)[C@@H](OC(C)=O)[C@@H]1OC(C)=O.CCP(CC)CC.[Au+] [Auranofin, auranofin, reference compound] | 1.93 | 1.71 | 2.27 | 6.96 | 2.83 | 1.15 | 2.31 | 2.21 | 3.22 | 1.4 | 2.16 | 2.88 | 2.61 | 1.7 to 2.3 | 1.2 to 2.8 | 2.2 to 2.9 | 1.2 to 7 | IC50 (OVC-5; listed as auranofin): 7 µM |
| Cc1c(C)n(Cc2ccccc2)[c](=[Au][Cl])n1Cc1ccccc1 [Au-LA, Chloro-(1,3-dibenzyl-4,5-dimethyl-imidazol-2-ylidene)gold] | 10.5 | 16.6 | 12.7 | 24.8 | 9.49 | 9.58 | 7.71 | 9.09 | 12.8 | 13.4 | 5.69 | 7.54 | 5.7 | 10.5 to 17.4 | 5.8 to 12 | 5.7 to 7.5 | 7.7 to 24.8 | IC50 [4]: 5.7 to 15.7 µM; More ROS compared to the medium (Mes-Sa [5]): ~50%; AUC (HPLC-UV), single measurements 1-5 ([6]; 0 h): 700 and 697 and 698; AUC (HPLC-UV), average ([6]; 0 h, Cu-LA, Ag-LA 1% DMSO, Au-LA 30% DMSO): 698; AUC (HPLC-UV), average ([6]; 1 h): 677; AUC (HPLC-UV), single measurements 1-5 ([6]; 1 h): 690 and 685 and 674 and 672 and 665; AUC (HPLC-UV), average ([6]; 2 h): 643; AUC (HPLC-UV), single measurements 1-5 ([6]; 2 h): 645 and 644 and 640 and 643; AUC (HPLC-UV), average ([6]; 4 h): 606; AUC (HPLC-UV), single measurements 1-5 ([6]; 4 h): 614 and 605 and 604 and 603; AUC (HPLC-UV), average ([6]; 8 h): 456; AUC (HPLC-UV), single measurements 1-5 ([6]; 8 h): 463 and 457 and 456 and 454 and 451; AUC (HPLC-UV), average ([6]; 16 h): 351; AUC (HPLC-UV), single measurements 1-5 ([6]; 16 h): 354 and 351 and 353 and 350 and 345; AUC (HPLC-UV), average ([6]; 32 h): 177; AUC (HPLC-UV), single measurements 1-5 ([6]; 32 h): 180 and 173 and 174 and 172 and 187; AUC (HPLC-UV), average ([6]; 48 h): 141; AUC (HPLC-UV), single measurements 1-5 ([6]; 48 h): 142 and 143 and 140 and 135; Stability in serum-free culture medium ([6]; HPLC-UV, observed 48 h): decreased after 4 h |
